Results from patent publication US8569301B2, “6, 6-dioxo-6-thia-1, 4-diaza-naphthalenes as herbicides” (Syngenta Limited, priority 2009, dated 2013).

Key:
Type in all cases: in vivo
[1] = tested on: crop and representative weed species; experiment: Example B2 herbicidal action post-emergence (Table B2); conditions: application post-emergence, rate 500 g/ha, evaluated after 15 days, score 10 to 0; for herbicidal damage score AMARE (10=total damage to plant; 0=no damage to plant): AMARE = Amaranthus retroflexus; for herbicidal damage score ECHCG (10=total damage to plant; 0=no damage to plant): ECHCG = Echinochloa crus-galli; for herbicidal damage score IPOHE (10=total damage to plant; 0=no damage to plant): IPOHE = Ipomea hederaceae; for herbicidal damage score SETFA (10=total damage to plant; 0=no damage to plant): SETFA = Setaria faberi
Experimental: Seeds of crop and representative weed species were sown in standard soil in pots. After cultivation for 14 days under controlled conditions in a glasshouse (at 22/16° C., day/night; 16 hours light; 65% humidity), the plants were sprayed. The spray solution was prepared by dissolving the technical active ingredient in acetone containing 10.56 wt % Emulsogen EL, 42.22 wt % N-methylpyrrolidone and 2.22 wt % DPG-monoethyl ether to give a 5% stock solution. This was then diluted with water containing 0.2% (v/v) of the adjuvant X-77 to give the desired treatment concentration.
The test plants were then grown on under controlled conditions in a glasshouse (at 22/16° C., day/night; 16 hours light; 65% humidity) and watered twice daily. After 15 days the test was evaluated and the assessed scores, from 10 to 0, are tabulated in Table B2 (10=total damage to plant; 0=no damage to plant).

[2] = tested on: SETFA; experiment: Example B1 herbicidal action post-emergence, SETFA; conditions: Rate 1000 g/ha; sprayed after 8 days cultivation; evaluated after 13 days; scores from 10 to 0 (10=total damage to plant; 0=no damage to plant)
Experimental: (§1) Seeds of a variety of test species were sown in standard soil in pots. After 8 days cultivation (post-emergence) under controlled conditions in a glasshouse (at 24/16° C., day/night; 14 hours light; 65% humidity), the plants were sprayed with an aqueous spray solution derived from the formulation of the technical active ingredient in acetone/water (50:50) solution containing 0.5% Tween 20 (polyoxyethelyene sorbitan monolaurate, CAS RN 9005-64-5). The test plants were then grown under controlled conditions in a glasshouse (at 24/16° C., day/night; 14 hours light; 65% humidity) and watered twice daily. After 13 days, the test was evaluated and the assessed scores, from 10 to 0, are tabulated in Table B1 (10=total damage to plant; 0=no damage to plant).

[3] = tested on: SOLNI; experiment: Example B1 herbicidal action post-emergence, SOLNI; conditions: Rate 1000 g/ha; sprayed after 8 days cultivation; evaluated after 13 days; scores from 10 to 0 (10=total damage to plant; 0=no damage to plant)
Experimental: as §1

[4] = tested on: ECHCG; experiment: Example B1 herbicidal action post-emergence, ECHCG; conditions: Rate 1000 g/ha; sprayed after 8 days cultivation; evaluated after 13 days; scores from 10 to 0 (10=total damage to plant; 0=no damage to plant)
Experimental: as §1

[5] = tested on: AMARE; experiment: Example B1 herbicidal action post-emergence, AMARE; conditions: Rate 1000 g/ha; sprayed after 8 days cultivation; evaluated after 13 days; scores from 10 to 0 (10=total damage to plant; 0=no damage to plant)
Experimental: as §1

[6] = tested on: IPOHE; experiment: Example B1 herbicidal action post-emergence, IPOHE; conditions: Rate 1000 g/ha; sprayed after 8 days cultivation; evaluated after 13 days; scores from 10 to 0 (10=total damage to plant; 0=no damage to plant)
Experimental: as §1

Structure (SMILES)	herbicidal damage score AMARE (10=total damage to plant; 0=no damage to plant) [1]	herbicidal damage score ECHCG (10=total damage to plant; 0=no damage to plant) [1]	herbicidal damage score IPOHE (10=total damage to plant; 0=no damage to plant) [1]	herbicidal damage score SETFA (10=total damage to plant; 0=no damage to plant) [1]	assessed score, application post-emergence, SETFA [2]	assessed score, application post-emergence, SOLNI [3]	assessed score, application post-emergence, ECHCG [4]	assessed score, application post-emergence, AMARE [5]	assessed score, application post-emergence, IPOHE [6]
C#CCC1c2nccnc2C(O)=C(c2c(F)ccc(Br)c2Cl)S1(=O)=O (centres unmarked) [Compound E8]	8	6	9	6	–	–	–	–	–
C=CCC1c2nccnc2C(O)=C(c2c(F)ccc(Br)c2Cl)S1(=O)=O (centres unmarked) [Compound E20]	7	2	7	4	–	–	–	–	–
CCCC1c2nccnc2C(O)=C(c2c(F)ccc(Br)c2Cl)S1(=O)=O (centres unmarked) [Compound E22]	7	0	7	2	–	–	–	–	–
CC1(C)c2nccnc2C(O)=C(c2cc(F)ccc2Cl)S1(=O)=O [Compound F3]	7	4	8	4	–	–	–	–	–
O=S1(=O)C(c2c(F)ccc(Br)c2Cl)=C(O)c2nccnc2C12CCCC2 [Compound F8]	5	6	8	5	–	–	–	–	–
C#CCC1(C)c2nccnc2C(O)=C(c2c(Cl)cccc2C(F)(F)F)S1(=O)=O (centres unmarked) [Compound F10, 7-(2-chloro-6-trifluoromethyl-phenyl)-5-methyl-6,6-dioxo-5-prop-2-ynyl-5,6-dihydro-6-thia-1,4-diaza-naphthalen-8-ol]	8	7	9	8	–	–	–	–	–
CC(C)C(=O)OC1=C(c2c(F)ccc(Br)c2Cl)S(=O)(=O)Cc2nccnc21 [Compound X2, isobutyric acid 7-(3-bromo-2-chloro-6-fluoro-phenyl)-6,6-dioxo-5,6-dihydro-6-thia-1,4-diaza-naphthalen-8-yl ester]	–	–	–	–	8	10	8	10	8
